Measured values reported in patent US20130259842A1, “STABLE REPROGRAMMED CELLS” (priority 2010, published 2013).

System: piPSC lines
Experiment: Chemical reprogramming of stable intermediate cell lines
Assay type: cell-based, mouse
Experimental: A subset of piPS cell lines were treated with RepSox (E-616452) (25 μM), AZA (500 μM), or both for 48 hours. For 2i treatment, CHIR99021 (Stemgent) was used at 3 μM and PD0325901 (Stemgent) was used at 1 μM. Oct4::GFP+ colonies were scored 12 days after the beginning of chemical treatment. Treatments were performed in mES media containing FBS unless otherwise noted.
10× bright field image merged with Oct4::GFP. The concentration of DMSO equals 0.2%.
piPSC or iPSC were plated on irradiated feeders or 0.1% gelatin, and grown in mES media treated with RepSox (E-616452) (25 μM), AZA (500 μM), or both for 48 hours. For 2i treatment, CHIR99021 (Stemgent) was used at 3 μM and PD0325901 (Stemgent) was used at 1 μM. Oct4::GFP+ colonies were scored 12 days after the beginning of chemical treatment. Treatments were performed in mES media containing FBS unless otherwise noted.
To examine whether multiple piPSC lines could be further reprogrammed to a fully pluripotent state, piPSC were cultured in the presence of RepSox, a known inhibitor of Tgf-β signalling previously described to reprogram intermediate cells (Ichida et al., 2009), 2i-treatment, combined chemical inhibition of Mek/Erk and GSK3 signaling (Silva et at, 2008), or the DNA methyl-transferase inhibitor 5′AzaC.

Cc1cccc(-c2[nH]ncc2-c2ccc3ncccc3n2)n1 [RepSox]
reprogramming scored by presence of Oct4::GFP positive colonies (25 μM RepSox, 2i = CHIR99021 3 μM + PD0325901 1 μM, exposed 48 hours, scored 12 days later): a subset of piPSC lines reprogram
further reprogramming to fully reprogrammed iPS cells as determined by the expression of Nanog (25 μM for 48 hours, piPSC lines D, F, G, and E, Nanog RT-PCR at 96 hours): underwent further reprogramming to fully reprogrammed iPS cells
